Measurements published in patent US10039770B2, “Prostaglandin F2Alpha and analogues thereof for treating atrophic cutaneous scarring” (Galderma S.A., priority 2013, dated 2018).

Key:
[1] = tested on: atrophic cutaneous scar; assay: Topical treatment of an atrophic cutaneous scar in a human (case example); format: in vivo; conditions: aqueous solution 0.004% topical once daily
Method: FIG. 1 A. depicts a 6 month old atrophic cutaneous scar secondary to dermatologic surgery present on the abdomen of a person prior to treatment. During the 3 to 4 months prior to starting topical treatment with PGF 2α analog, the scar had not qualitatively changed in structure or appearance. […] The scar was then treated with an aqueous solution of topical travoprost 0.004% which was digitally massaged onto the scar surface once daily for several weeks. FIGS. 1B through J depict the appearance of the same scar at one week intervals during the treatment period.

[2] = tested on: skin (Sc)fibroblasts; conditions: exogenous administration; mice with a mutated form of α2AP; cited from earlier work
[3] = tested on: synovial fibroblast; conditions: in culture; cited from earlier work

Row | Compound | Langer lines across the previously scarred skin ([1]; at 8 weeks) | surrounding skin: keloid formation, atrophy or pigmentation ([1]; at all time points) | other adverse reactions ([1]; during or after the treatment interval) | erythema of the scar ([1]; over 9 weeks of treatment) | transition of the border between the scar tissue and normal surrounding skin ([1]; over 9 weeks of treatment) | fibrosis and thickening of the atrophic areas of the scar ([1]; person, abdominal scar, over 9 weeks of treatment) | bleomycin-induced collagen production / fibrosis in mutant (Sc)fibroblast strain [2] | synovial fibroblast collagen production, cell proliferation and cell migration [3]
1 | CC(C)OC(=O)CCC/C=C\C[C@@H]1[C@@H](/C=C/[C@@H](O)COc2cccc(C(F)(F)F)c2)[C@H](O)C[C@@H]1O [travoprost] | normal appearing Langer lines are apparent | no evidence of keloid formation, atrophy or pigmentation | No other adverse reactions were noted | decrease in erythema | visibly smoother transition of the border between the scar tissue and normal surrounding skin | gradual increase in fibrosis and thickening of the atrophic areas of the scar |  | 
2 | Prostaglandin F 2α [PGF 2α] |  |  |  |  |  |  | reversed the attenuation and this resulted in dermal thickening and fibrosis | stimulated
3 | transforming growth factor β |  |  |  |  |  |  |  | not
